# Results reported in patent US4992292A, “Tris-hydroxymethyl alkane dicarboxylate extended esters as low calorie fat mimetics” (Nabisco Brands, Inc., priority 1990, dated 1991).
# Assays:
# [1] = in vivo animal feeding study for caloric availability; set-up: species or system Sprague-Dawley rats; details: rats, diet of 50% fort and 21% test compound, 14 days; from weight gain and corn oil base line data
# Text: This example illustrates how the novel fat mimetics of this invention are screened for caloric availability by a carefully controlled in vivo animal feeding study.
# An experimental relationship between total calories ingested and animal body weight gain is established by monitoring the body weight gain associated with consumption of a nutritionally balanced diet containing varying concentrations of a reference substance such as corn oil which has a known caloric availabilty. Correlations between total calories ingested and body weight gain are excellent (r=0.99).
# Caloric availability of an unknown substance is evaluated by substituting a specific weight of the unknown substance for the reference substance and observing the body weight gain. The gain in body weight is equated to a total number of calories using the correlation previously established for the reference data. The estimated number of calories ingested are divided by the weight of unknown substance to give the apparent calories per gram for the unknown substance. Generally speaking, in these bioavailability studies, the degree of perianal pelt soiling correlates with reduced bioavailability.
# The test animals are six-week-old male Sprague-Dawley rats obtained from the Portage, Michigan facility of the Charles River Laboratories, Inc. After acclimation for 15 days, the test duration is I4 days. […]
# pancreatic lipase = details: cited from earlier work
# [2] = rats fed ad libitum; cited from earlier work
# [3] = rat, in vivo; cited from earlier work
compound,measurement,setting,value
"CCCCCCCC/C=C\CCCCCCCC(=O)OCC(C)(COC(=O)CCCCCCC/C=C\CCCCCCCC)COC(=O)CCCCCCC/C=C\CCCCCCCC [Example 1, 1,1,1-Tris hydroxymethylethane trioleate]",caloric availability upon being metabolized,[1],about 3.3 kcal/gram
CCCCCCCC(=O)OCC(COC(=O)CCCCCCC)(COC(=O)CCCCCCC)COC(=O)CCCCCCC [pentaerythritol tetracaprylate],hydrolysis by the enzyme pancreatic lipase,pancreatic lipase,"not attacked, hydrolyzed"
same,food consumption versus control animals on a normal diet,[2],consumed more than control animals
corn oil,caloric availability of reference,[3],9.0 calories/gram
